From ChEMBL document CHEMBL1138541, “Design, synthesis, and evaluation of benzophenone derivatives as novel acetylcholinesterase inhibitors” (Eur J Med Chem, 2009)
pIC50: −log10 of the molar value.

Experiments:
[1] = biological target: Cholinesterase (Homo sapiens, UniProt P06276); assay: Inhibition of human serum BChE by Ellman's method
[2] = biological target: Acetylcholinesterase (Homo sapiens, UniProt P22303); assay: Inhibition of human recombinant AChE by Ellman's method
Acetylcholinesterase, sequence (P22303 whole entry): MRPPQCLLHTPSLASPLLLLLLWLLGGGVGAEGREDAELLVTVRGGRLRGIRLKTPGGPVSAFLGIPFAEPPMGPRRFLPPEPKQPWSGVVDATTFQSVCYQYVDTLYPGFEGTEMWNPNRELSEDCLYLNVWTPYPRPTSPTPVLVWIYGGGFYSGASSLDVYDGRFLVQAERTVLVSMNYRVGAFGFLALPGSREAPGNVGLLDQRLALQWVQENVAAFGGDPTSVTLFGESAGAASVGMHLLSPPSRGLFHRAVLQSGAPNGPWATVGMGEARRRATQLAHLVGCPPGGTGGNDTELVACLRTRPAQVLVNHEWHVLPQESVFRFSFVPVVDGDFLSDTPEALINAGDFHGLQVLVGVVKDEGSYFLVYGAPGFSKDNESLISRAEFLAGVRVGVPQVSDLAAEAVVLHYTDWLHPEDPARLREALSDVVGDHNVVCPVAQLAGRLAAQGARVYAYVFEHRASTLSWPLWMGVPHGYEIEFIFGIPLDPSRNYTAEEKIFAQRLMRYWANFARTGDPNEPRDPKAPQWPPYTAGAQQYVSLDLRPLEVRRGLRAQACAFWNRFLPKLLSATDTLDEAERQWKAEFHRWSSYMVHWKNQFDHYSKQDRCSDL

Cholinesterase, sequence (P06276 whole entry): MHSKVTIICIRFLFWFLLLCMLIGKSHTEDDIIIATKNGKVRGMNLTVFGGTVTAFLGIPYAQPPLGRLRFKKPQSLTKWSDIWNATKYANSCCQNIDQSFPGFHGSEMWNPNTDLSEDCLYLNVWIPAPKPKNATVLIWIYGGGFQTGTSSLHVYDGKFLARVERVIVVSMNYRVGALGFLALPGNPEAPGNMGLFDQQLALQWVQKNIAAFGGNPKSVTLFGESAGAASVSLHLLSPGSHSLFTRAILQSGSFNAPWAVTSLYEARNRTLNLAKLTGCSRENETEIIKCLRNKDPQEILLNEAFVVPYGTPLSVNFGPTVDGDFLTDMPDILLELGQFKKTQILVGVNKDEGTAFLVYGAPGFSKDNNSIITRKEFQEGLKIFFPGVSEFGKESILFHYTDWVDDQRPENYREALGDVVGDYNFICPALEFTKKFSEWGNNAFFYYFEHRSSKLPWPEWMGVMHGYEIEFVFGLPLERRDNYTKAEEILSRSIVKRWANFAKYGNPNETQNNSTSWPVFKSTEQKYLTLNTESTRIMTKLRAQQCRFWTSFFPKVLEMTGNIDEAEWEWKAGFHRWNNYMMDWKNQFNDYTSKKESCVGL

| Compound | pIC50 [1] | pIC50 [2] |
| --- | --- | --- |
| CCN(Cc1ccccc1)Cc1ccc(C(=O)c2ccc(OC)c(OC)c2)cc1 | 4.15 | 6.24 |
| COc1ccc(C(=O)c2ccc(CN(C)Cc3cccc(C)c3)cc2)cc1OC | 3.90 | 5.78 |
| COc1ccc(C(=O)c2ccc(/C=C/CN(C)Cc3ccccc3)cc2)cc1OC | 4.36 | 5.68 |
| COc1ccc(C(=O)c2ccc(CN(C)Cc3ccccc3)cc2)cc1F | < 4.00 | 5.80 |
| COc1ccc(C(=O)c2ccc(CN(C)Cc3cccc([N+](=O)[O-])c3)cc2)cc1OC | < 4.00 | 5.37 |
| COc1ccc(C(=O)c2ccc(CN(C)Cc3ccccc3)cc2)cc1OC | 4.22 | 6.34 |
| COc1ccc(C(=O)c2ccc(CN3CCOCC3)cc2)cc1OC |  | 3.46 |
| COc1ccc(C(=O)c2ccc(CN(C)CCN(C)C)cc2)cc1OC | 4.05 | 5.63 |
| C#CCN(C)Cc1ccc(C(=O)c2ccc(OC)c(OC)c2)cc1 |  | 4.57 |
| COc1ccc(C(=O)c2ccc(CN3CCc4ccccc4C3)cc2)cc1OC |  | 4.27 |
| CN(Cc1ccccc1)Cc1ccc(C(=O)c2ccc3ccccc3c2)cc1 |  | 4.71 |
| COc1ccc(C(=O)c2ccc(CN(CCN(C)C)Cc3ccccc3)cc2)cc1OC | 4.48 | 5.06 |
| COc1ccc(C(=O)c2ccc(CN(CCO)Cc3ccccc3)cc2)cc1OC | 3.76 | 5.85 |
| COc1ccccc1CN(C)Cc1ccc(C(=O)c2ccc(OC)c(OC)c2)cc1 | 4.79 | 5.43 |
| COc1ccc(C(=O)c2ccc(CN(C)Cc3ccccc3)cc2)cc1 | < 4.00 | 5.74 |
| CCN(CC)Cc1ccc(C(=O)c2ccc(OC)c(OC)c2)cc1 |  | 4.43 |
